Experimental data published in ChEMBL document CHEMBL1201862, “PubChem BioAssay data set” (2004).
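Exposure lasted 48 hours, with cells grown in 96-well plates and compounds tested at five concentrations. GI50 = concentration required for 50% inhibition of growth.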 Calls of active or inactive are those of the source. Rule as the data show it: active = GI50 up to about 1.1 µM and inactive = higher.

How the values were obtained:
Experiment in all cases: NCI tumour cell line growth inhibition, 48 h
CAKI-1 = test system: CAKI-1
EKVX = test system: EKVX
HCC 2998 = test system: HCC 2998
HCT-116 = test system: HCT-116
HCT-15 = test system: HCT-15
HOP-92 = test system: HOP-92
HT-29 = test system: HT-29
KM12 = test system: KM12
Malme-3M = test system: Malme-3M
OVCAR-4 = test system: OVCAR-4
OVCAR-5 = test system: OVCAR-5
RXF 393 = test system: RXF 393
SF-539 = test system: SF-539
SK-MEL-5 = test system: SK-MEL-5
SN12C = test system: SN12C
SNB-19 = test system: SNB-19
SW-620 = test system: SW-620
UO-31 = test system: UO-31
SR = test system: SR
TK-10 = test system: TK-10

Compound	GI50 (CAKI-1)	GI50 (EKVX)	GI50 (HCC 2998)	GI50 (HCT-116)	GI50 (HCT-15) [µM]	GI50 (HOP-92)	GI50 (HT-29)	GI50 (KM12)	GI50 (Malme-3M)	GI50 (OVCAR-4)	GI50 (OVCAR-5)	GI50 (RXF 393)	GI50 (SF-539)	GI50 (SK-MEL-5)	GI50 (SN12C)	GI50 (SNB-19)	GI50 (SW-620)	GI50 (UO-31)	GI50 (SR)	GI50 (TK-10)
CC(C)[C@](O)(C(=O)OCC1CC[N+]2([O-])CC[C@@H](O)C12)[C@H](C)O (some centres not stated)	> 375 µM (inactive)	> 375 µM (inactive)	> 277 µM (inactive)	> 255 µM (inactive)	> 375	> 375 µM (inactive)	> 375 µM (inactive)	> 375 µM (inactive)	> 255 µM (inactive)	> 375 µM (inactive)	> 375 µM (inactive)	> 375 µM (inactive)	> 375 µM (inactive)	> 334 µM (inactive)	> 375 µM (inactive)	> 375 µM (inactive)	> 375 µM (inactive)	> 375 µM (inactive)	–	–
CCOC(=O)CN1CCS/C1=N/C#N	> 100 µM (inactive)	> 100 µM (inactive)	> 100 µM (inactive)	> 100 µM (inactive)	> 100	> 60 µM (inactive)	> 42.4 µM (inactive)	> 100 µM (inactive)	> 100 µM (inactive)	> 100 µM (inactive)	4.22 µM (inactive)	> 100 µM (inactive)	> 100 µM (inactive)	> 100 µM (inactive)	> 100 µM (inactive)	> 100 µM (inactive)	> 100 µM (inactive)	> 100 µM (inactive)	–	–
COc1ccc2c(c1)c1c(n2CCN2CCCCC2)-c2cccc(OC)c2CC1	16.4 µM (inactive)	19.6 µM (inactive)	15.5 µM (inactive)	24.7 µM (inactive)	8.99	> 10 µM (inactive)	4.58 µM (inactive)	13 µM (inactive)	–	29.2 µM (inactive)	16.1 µM (inactive)	–	–	18.2 µM (inactive)	14.9 µM (inactive)	13.4 µM (inactive)	16.7 µM (inactive)	10.4 µM (inactive)	4.9 µM (inactive)	15 µM (inactive)
Oc1nc2c(c(-c3ccccc3Cl)n1)COC/C2=C\c1ccccc1Cl	> 100 µM (inactive)	25.6 µM (inactive)	> 100 µM (inactive)	> 100 µM (inactive)	> 100	> 100 µM (inactive)	> 100 µM (inactive)	> 100 µM (inactive)	–	> 100 µM (inactive)	> 100 µM (inactive)	> 100 µM (inactive)	> 100 µM (inactive)	> 100 µM (inactive)	> 100 µM (inactive)	> 100 µM (inactive)	> 100 µM (inactive)	80.9 µM (inactive)	–	> 100 µM (inactive)
CSCCC(NOC(=O)Cc1ccccc1)P(=O)(O)c1ccccc1 (configuration not stated)	> 100 µM (inactive)	–	> 100 µM (inactive)	> 100 µM (inactive)	> 100	> 100 µM (inactive)	> 100 µM (inactive)	–	–	> 100 µM (inactive)	> 100 µM (inactive)	–	–	> 100 µM (inactive)	> 100 µM (inactive)	> 100 µM (inactive)	> 100 µM (inactive)	> 100 µM (inactive)	> 100 µM (inactive)	> 100 µM (inactive)
O=NN(CCCl)C(=O)Nc1ccc(Cl)c(Cl)c1	81.1 µM (inactive)	46.9 µM (inactive)	> 60.7 µM (inactive)	> 100 µM (inactive)	> 71.6	> 77.8 µM (inactive)	76.6 µM (inactive)	> 77.3 µM (inactive)	> 100 µM (inactive)	61.1 µM (inactive)	> 67.9 µM (inactive)	> 100 µM (inactive)	> 91.2 µM (inactive)	71.6 µM (inactive)	> 100 µM (inactive)	> 63 µM (inactive)	> 100 µM (inactive)	45.7 µM (inactive)	–	–
COC1CCC(CO)OO1 (configuration not stated)	–	–	–	30.3 µM (inactive)	–	28.6 µM (inactive)	28.9 µM (inactive)	30.9 µM (inactive)	59.7 µM (inactive)	45.9 µM (inactive)	25.9 µM (inactive)	33.7 µM (inactive)	27.7 µM (inactive)	–	–	41.4 µM (inactive)	–	35.1 µM (inactive)	24.3 µM (inactive)	–
CC(=O)NC(CCCCNC(=O)OC(C)(C)C)C(=O)O (configuration not stated)	63.4 µM (inactive)	> 100 µM (inactive)	> 100 µM (inactive)	> 100 µM (inactive)	> 100	–	> 100 µM (inactive)	–	> 100 µM (inactive)	> 100 µM (inactive)	38.1 µM (inactive)	–	–	> 100 µM (inactive)	–	> 100 µM (inactive)	> 100 µM (inactive)	> 100 µM (inactive)	–	> 100 µM (inactive)
COc1ccc(NC(=S)NNC(=O)c2nsc3ccccc23)cc1	–	28.3 µM (inactive)	68.2 µM (inactive)	28.4 µM (inactive)	21.8	17.4 µM (inactive)	45.9 µM (inactive)	37.3 µM (inactive)	–	62.2 µM (inactive)	> 100 µM (inactive)	22 µM (inactive)	28.3 µM (inactive)	30.8 µM (inactive)	31.8 µM (inactive)	26.9 µM (inactive)	48.4 µM (inactive)	25.2 µM (inactive)	31 µM (inactive)	43.4 µM (inactive)
COc1ccc(C[C@H](N)C(=O)N2C[C@@H](CO)C[C@@H](n3cnc4c(N(C)C)ncnc43)C2)cc1	> 100 µM (inactive)	> 100 µM (inactive)	–	> 100 µM (inactive)	> 100	> 100 µM (inactive)	> 100 µM (inactive)	> 100 µM (inactive)	> 100 µM (inactive)	–	> 100 µM (inactive)	–	> 100 µM (inactive)	> 100 µM (inactive)	–	> 100 µM (inactive)	> 100 µM (inactive)	> 100 µM (inactive)	> 100 µM (inactive)	> 100 µM (inactive)
CC1=CC(O)C(O)C2(C)C1CC1OC(=O)C(O)C3C(C)C(O)C4(O)OCC13C42 (configuration not stated)	32.8 µM (inactive)	30.9 µM (inactive)	16.8 µM (inactive)	99.5 µM (inactive)	335	6.03 µM (inactive)	38.1 µM (inactive)	13.3 µM (inactive)	97.7 µM (inactive)	40.9 µM (inactive)	161 µM (inactive)	8.81 µM (inactive)	39.2 µM (inactive)	29.4 µM (inactive)	236 µM (inactive)	13.7 µM (inactive)	24.7 µM (inactive)	110 µM (inactive)	–	–
CSC1=C(SC)C(=O)c2cn(C)c(=O)cc2C1=O	–	18.3 µM (inactive)	17.1 µM (inactive)	1.81 µM (inactive)	2.14	0.904 µM (active)	6.14 µM (inactive)	21.6 µM (inactive)	2.24 µM (inactive)	1.97 µM (inactive)	20.2 µM (inactive)	1.89 µM (inactive)	9.82 µM (inactive)	1.75 µM (inactive)	3.27 µM (inactive)	17.1 µM (inactive)	1.74 µM (inactive)	1.75 µM (inactive)	< 0.0332 µM (active)	2.33 µM (inactive)
Cc1cn(C2CC(O)C(Cn3cc(Cn4nc(Br)c(=O)[nH]c4=O)nn3)O2)c(=O)[nH]c1=O (configuration not stated)	> 100 µM (inactive)	> 100 µM (inactive)	> 100 µM (inactive)	> 100 µM (inactive)	> 100	–	–	> 100 µM (inactive)	78 µM (inactive)	> 100 µM (inactive)	> 100 µM (inactive)	> 100 µM (inactive)	> 100 µM (inactive)	> 100 µM (inactive)	> 100 µM (inactive)	> 100 µM (inactive)	> 100 µM (inactive)	> 100 µM (inactive)	–	> 100 µM (inactive)
Cc1ccc(C=C(C(=O)O)C(=O)O)o1	> 100 µM (inactive)	> 100 µM (inactive)	> 100 µM (inactive)	> 100 µM (inactive)	> 100	–	> 100 µM (inactive)	> 100 µM (inactive)	> 100 µM (inactive)	–	> 100 µM (inactive)	> 100 µM (inactive)	> 100 µM (inactive)	> 100 µM (inactive)	> 100 µM (inactive)	> 100 µM (inactive)	> 100 µM (inactive)	> 100 µM (inactive)	> 100 µM (inactive)	> 100 µM (inactive)
C[N+](C)(CCO)CCN1c2ccccc2Sc2ccccc21	> 10 µM (inactive)	> 10 µM (inactive)	> 10 µM (inactive)	> 10 µM (inactive)	> 10	–	> 10 µM (inactive)	> 10 µM (inactive)	> 10 µM (inactive)	> 10 µM (inactive)	> 10 µM (inactive)	> 10 µM (inactive)	> 10 µM (inactive)	> 10 µM (inactive)	> 10 µM (inactive)	> 10 µM (inactive)	> 10 µM (inactive)	3.52 µM (inactive)	> 10 µM (inactive)	> 10 µM (inactive)
CCNC(=O)C(C)C1CCC2(C)C=CC(=O)C(C)=C2C1O (configuration not stated)	> 100 µM (inactive)	> 100 µM (inactive)	> 100 µM (inactive)	> 100 µM (inactive)	> 100	> 100 µM (inactive)	> 100 µM (inactive)	> 100 µM (inactive)	–	> 100 µM (inactive)	> 100 µM (inactive)	> 100 µM (inactive)	> 100 µM (inactive)	> 100 µM (inactive)	> 100 µM (inactive)	> 100 µM (inactive)	> 100 µM (inactive)	> 73.6 µM (inactive)	–	–
